# Laboratory results: publication PMC6045618, “Novel natural killer cell-mediated cancer immunotherapeutic activity of anisomycin against hepatocellular carcinoma cells” (Scientific Reports, 2018)
# Key:
# [1] = system: MHC-I molecules (HLA-A, -B, and -C); assay: Flow cytometry of MHC-I (HLA-A, -B, -C) on HCC cells; format: cell-based; details: 0.2 μM 48 h, HepG2, SNU449, Huh7 cells
# [2] = system: Huh7 cells; assay: EZ-Cytox Enhanced cell viability assay, Huh7; format: cell-based; details: 48 h exposure, read-out: IC50, cell cytotoxicity / proliferation inhibition
# Description: (§1) HepG2 cells were purchased from the American Type Culture Collection (ATCC, Manassas, VA, USA), and Huh7 cells and SNU449 cells were purchased from the Korean Cell Line Bank (Seoul, Korea). Cells were cultured according to the suppliers’ instructions. HepG2 cells were cultured in Eagle’s minimum essential medium (ATCC) containing 10% FBS (Life Technologies), 2 mM L-glutamine, and penicillin-streptomycin (Life Technologies) at 37 °C in 5% CO2. Huh7 and SNU449 cells were cultured in RPMI1640 (Life Technologies) containing 10% FBS (Life Technologies), 2 mM L-glutamine, and penicillin-streptomycin (Life Technologies) at 37 °C in 5% CO2. Anisomycin was purchased from Sigma-Aldrich (St. Louis, MO, USA) and dissolved at a concentration of 20 mg/mL in 100% DMSO as a stock solution. The stock solution was stored at −20 °C and diluted in medium before each experiment. […]
# (§2) Cell proliferation was assessed using an EZ-Cytox Enhanced cell viability assay kit from ITSBIO (Seoul, Republic of Korea). […] At the end of the incubation, the absorbance in each well was measured at 450 nm using a microplate reader. The relative cell viability (%) was calculated using the equation OD^T/OD^C × 100% (where OD^T represents the absorbance of the treatment group, and OD^c represents the absorbance of the control group). […]
# [3] = system: HepG2 cells; assay: Annexin V / 7-ADD apoptosis flow cytometry, HepG2; format: cell-based; details: 48 h
# Description: (§3) To analyse apoptotic cells, we stained cells with anti-human CD56-allophycocyanin monoclonal antibodies, 7ADD, and Annexin V (BioLegend, San Diego, CA, USA) following the protocol provided by the manufacturer. Briefly, we stained cells with anti-human CD56-allophycocyanin monoclonal antibodies on ice for 10 min, washed cells with an appropriate volume of chilled Annexin V binding buffer (BioLegend), and resuspended cells in chilled Annexin V binding buffer (BioLegend) in the presence of Annexin V and 7ADD. The cells were incubated on ice for 30 min, washed with chilled Annexin V binding buffer, and analysed. Staining data were collected using a FACSCanto II Cytometer (BD Biosciences).
# [4] = system: Huh7 cells; assay: Annexin V / 7-ADD apoptosis flow cytometry, Huh7; format: cell-based; details: 48 h
# Description: as §3
# [5] = system: cleaved caspase-3, cleaved PARP; assay: Immunoblot of cleaved caspase-3 and cleaved PARP in sorted HepG2 cells; format: cell-based; details: HepG2, 0.2 μM 48 h
# Description: HepG2 cells were cultured in the presence or absence of 0.2 µM anisomycin for 2 days and harvested for cell counts. Then, 1 × 10^7 HepG2 cells were cocultured with 1 × 10^7 NK cells for 2 h and harvested by centrifugation at 1,000 rpm for 5 min. Cells were stained with anti-human CD56 monoclonal antibodies (BioLegend), washed, and resuspended in PBS containing HBSS supplemented with 4% FBS (Gibco). CD56-negative HepG2 cells were isolated to nearly 100% purity using an Aria cytometer (BD Biosciences).
# Cells were suspended in modified RIPA lysis buffer (150 mM NaCl, 1 mM EDTA, 1% Triton X-100, 1% NP-40, 0.5% sodium deoxycholate, 0.1% sodium dodecyl sulphate [SDS], and 50 mM Tris-HCl [pH 7.4]) containing a protease inhibitor cocktail (Roche, Mannheim, Germany) and phosphatase inhibitors (1 mM sodium fluoride and 2 mM sodium orthovanadate) on ice for 30 min and centrifuged at 15,000 × g for 30 min to collect whole-cell lysates. Proteins (10–20 µg) were then separated by SDS-polyacrylamide gel electrophoresis on 8‒12% gels and transferred to polyvinylidene difluoride membranes (Millipore, Bedford, MA, USA). Western blotting was performed with primary antibodies against caspase3, PARP, and β-actin (Cell Signaling Technology) and peroxidase-conjugated anti-mouse or anti-rabbit secondary antibodies. Proteins were visualized with Enhanced Chemiluminescence Plus reagents (Amersham Biosciences, Piscataway, NJ, USA).
# [6] = system: HepG2 carcinoma; assay: HepG2 tumour xenograft in NOD-SCID mice with or without human primary NK cells; format: in vivo, mouse; details: 10 mg/kg i.p.
# From the text: NOD.CB17-Prkdc^scid/NCrCrl mice were purchased from Charles River Laboratories, Inc. (Wilmington, MA, USA). We used 6-8-week-old female mice in all experiments; these mice were housed in a pathogen-free animal facility. All animal experiments were approved by the Institutional Animal Use and Care Committee of the Korea Research Institute of Bioscience and Biotechnology and performed in accordance with the Guide for the Care and Use of Laboratory Animals published by the US National Institutes of Health.
# Six-week-old female NOD.CB17-Prkdc^scid/NCrCrl mice were purchased from Charles River Laboratories, Inc. Xenograft models were established by subcutaneous injection of 1 × 10^6 HepG2 cells into the right flanks of the mice. Five days after inoculation, the mice were randomly separated into groups of four. Anisomycin (10 mg/kg) was administered from day 0 to 5 and from day 15 to 20 after initiation of anisomycin treatment via the intraperitoneal (i.p) route. NK cells (5 × 10^6 cells/mouse) were transferred into mice two times on days 6 and 11 during the treatment pause period. Tumours were measured every 3 days using callipers, and their volumes were calculated according to the following formula: volume (mm^3) = (d^2 × D)/2, where d and D represent the shortest and longest tumour diameters, respectively.
# [7] = system: HepG2 cells; assay: EZ-Cytox Enhanced cell viability assay, HepG2; format: cell-based; details: 48 h exposure, read-out: IC50, cell cytotoxicity / proliferation inhibition
# Description: as §1, §2
# [8] = system: HepG2, Huh7, and SNU449 cells; assay: Light microscopy of cell density; format: cell-based; details: 0.2 μM, 2 days
# Description: HepG2 cells were purchased from the American Type Culture Collection (ATCC, Manassas, VA, USA), and Huh7 cells and SNU449 cells were purchased from the Korean Cell Line Bank (Seoul, Korea). Cells were cultured according to the suppliers’ instructions. HepG2 cells were cultured in Eagle’s minimum essential medium (ATCC) containing 10% FBS (Life Technologies), 2 mM L-glutamine, and penicillin-streptomycin (Life Technologies) at 37 °C in 5% CO2. Huh7 and SNU449 cells were cultured in RPMI1640 (Life Technologies) containing 10% FBS (Life Technologies), 2 mM L-glutamine, and penicillin-streptomycin (Life Technologies) at 37 °C in 5% CO2. Anisomycin was purchased from Sigma-Aldrich (St. Louis, MO, USA) and dissolved at a concentration of 20 mg/mL in 100% DMSO as a stock solution. The stock solution was stored at −20 °C and diluted in medium before each experiment. […] Antibodies against caspase3, PARP, and β-actin were purchased from Cell Signaling Technology (Danvers, MA, USA).
# [9] = system: SNU449 cells; assay: EZ-Cytox Enhanced cell viability assay, SNU449; format: cell-based; details: 48 h exposure, read-out: IC50, cell cytotoxicity / proliferation inhibition
# Description: as §1, §2
# [10] = system: CD58; assay: Western blot of CD58 in HCC cells; format: cell-based; details: 0.2 μM, HepG2, Huh7, SNU449 cells
# [11] = system: SNU449 cells; assay: Annexin V / 7-ADD apoptosis flow cytometry, SNU449; format: cell-based; details: 48 h
# Description: as §3
# [12] = system: HepG2 cells; assay: Apoptosis of anisomycin-pre-treated HepG2 cells cocultured with NK cells (flow cytometry); format: cell-based, human; details: HepG2 pre-treated 0.2 μM 48 h, then NK cells 4 h, CD56-negative gate
# From the text: Peripheral blood from healthy donors was obtained from the Red Cross Blood Center. We followed the guidelines of the Red Cross, and all methods and protocols involving the use of human peripheral blood were approved by the Institutional Review Board of the Red Cross. Based on the Red Cross guidelines, informed consent for study participation was obtained, and donor information was not provided. NK cells were isolated from whole blood to more than 95% purity by negative selection using a RosetteSep Human NK Cell Enrichment Cocktail (StemCell Technologies, Vancouver, Canada) according to the manufacturer’s protocol. The isolated NK cells were washed in HBSS plus 4% foetal bovine serum (FBS; Life Technologies, Carlsbad, CA, USA) and resuspended in MEM-α (Life Technologies) containing 20% FBS (Life Technologies) and penicillin-streptomycin (Life Technologies) at 37 °C in 5% CO2.
# To analyse apoptotic cells, we stained cells with anti-human CD56-allophycocyanin monoclonal antibodies, 7ADD, and Annexin V (BioLegend, San Diego, CA, USA) following the protocol provided by the manufacturer. […] The cells were incubated on ice for 30 min, washed with chilled Annexin V binding buffer, and analysed. […]
structure (smiles),measurement,setting,value
COc1ccc(C[C@H]2NC[C@H](O)[C@H]2OC(C)=O)cc1 [anisomycin],"MHC-I molecules (HLA-A, -B, -C) at the protein level",[1],significantly downregulated
same,IC50,[2],118 nM
same,Annexin V and 7-ADD double-positive cells (apoptotic cells),"[3]; HepG2, 0.1 μM",1.23%
same,Annexin V and 7-ADD double-positive cells (apoptotic cells),"[3]; HepG2, 0.2 μM",2.81%
same,Annexin V and 7-ADD double-positive cells (apoptotic cells),"[4]; Huh7, 0.1 μM",4.59%
same,Annexin V and 7-ADD double-positive cells (apoptotic cells),"[4]; Huh7, 0.2 μM",6.85%
same,Cleaved PARP,[5]; anisomycin and NK cells,substantially increased
same,Cleaved caspase-3 protein after exposure to NK cells,[5]; then NK cells 2 h,synergistically increased
same,Level of the cleaved form of caspase-3,[5]; with or without NK cell treatment,significantly increased
same,Tumour suppression in the presence of human primary NK cells,"[6]; days 0 to 5 and 15 to 20, NK cells 5 × 10^6 cells/mouse on days 6 and 11",synergistically enhanced
same,Body weight loss and abnormal behaviours of treated mice,"[6]; days 0 to 5 and 15 to 20, NOD-SCID mice",did not show significant body weight loss or any abnormal behaviours
same,HepG2 tumour size in mice,"[6]; days 0 to 5 and 15 to 20, NOD-SCID mice, without NK cells",significantly reduced HepG2 tumour size
same,IC50,[7],82.2 nM
same,Cell densities observed by light microscopy,[8],reduced the cell densities
same,IC50,[9],138 nM
same,Expression of CD58 (western blot),[10],increased the expression of CD58 in all three HCC cell lines
same,Annexin V and 7-ADD double-positive cells (apoptotic cells),"[11]; SNU449, 0.1 μM",2.24%
same,Annexin V and 7-ADD double-positive cells (apoptotic cells),"[11]; SNU449, 0.2 μM",4.94%
same,Annexin V and 7ADD double-positive cells (apoptotic cells) after coculture with NK cells,[12],14.00%
